One experiment concerns the target Genome polyprotein (Hepatitis C virus, UniProt Q2Q167). The experiment can be described thus: HCV core protein dimerization inhibitors, dose response, biochemical, TR-FRET (AID 2159).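 Also: blocks dimerization of HCV core protein measured by TR-FRET between tagged core106 pairs.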 On the set-up: species or system Hepacivirus hominis.
A further experiment deals with Large T antigen (Simian virus 40, UniProt P03070). The experiment is classed as functional, Betapolyomavirus macacae.
For experiment [1], the target named is Induced myeloid leukemia cell differentiation protein Mcl-1 (Homo sapiens, UniProt Q07820). The experiment is classed as functional.
Experiment [2] in a line: inhibition of K1F phage lysis, E. coli UTI89, bacterial capsule biogenesis inhibitors, alamar blue (AID 488966). Format: functional. In general terms: The colour change of resazurin is a common sign of viable cells or microbes.
Experiment [3] deals with 26S proteasome non-ATPase regulatory subunit 14 (Homo sapiens, UniProt O00487). The experiment can be described thus: inhibition of proteasome subunit RPN11 – biochemical, fluorescence polarization, uHTS hits, confirmation (AID 602368). The experiment is classed as functional. In general terms: Polarisation of emitted light reports the rotation of a fluorescent probe.
In experiment [4] the target is 72 kDa type IV collagenase (Homo sapiens, UniProt P08253). The experiment can be described thus: Dose Response validation of uHTS RPN11 inhibitor hits using a MMP-2 Fluorescence assay. Format: functional.
For a further experiment, the target named is Prothrombin (Bos taurus, UniProt P00735). Description: thrombin inhibition, dose response, biochemical, fluorescence polarization, uHTS hits (AID 602369). Format: functional.
The next experiment deals with CHO-K1. The experiment can be described thus: Counterscreen for antagonists of the orexin 1 receptor (OX1R; HCRTR1): Homogeneous time resolved fluorescence (HTRF)-based cell-based dose response assay to identify antagonists of the parental CHO-K1 cell line. [Related pubchem assays (depositor defined):AID434989, AID435008, AID463079, AID485270, AID492963, AID492964, AID492965, AID493232, AID504699, AID504701]. The experiment is classed as functional. The settings on record: Cricetulus griseus.

Experiment [5] can be described thus: Luminescence Cell-Based Dose Retest to Confirm Inhibitors of Cancer Stem Cells. [Related pubchem assays (depositor defined):AID2717, AID2721]. The experiment is classed as functional. The settings on record: Homo sapiens.
A short description of experiment [6]: Counterscreen for antagonists of the orexin 1 receptor (OX1R; HCRTR1): Fluorescence-based cell-based high throughput dose response assay to identify antagonists of the parental CHO cell line. [Related pubchem assays (depositor defined):AID434989, AID435008, AID463079, AID485270, AID492963, AID492964, AID492965, AID493232, AID504699, AID504701]. Format: functional. On the technique in general: A counterscreen serves to expose hits that act by an unwanted route or on another target.

The target in experiment [7] is T1, Orexin/Hypocretin receptor type 1 (Homo sapiens, UniProt O43613). The experiment can be described thus: Homogeneous Time Resolved Fluorescence (HTRF)-based cell-based high throughput dose response assay for antagonists of the orexin 1 receptor (OX1R; HCRTR1). [Related pubchem assays (depositor defined):AID434989, AID435008, AID463079, AID485270, AID492963, AID492964, AID492965, AID493232, AID504717, AID504718]. The experiment is classed as functional.

The target of experiment [8] is T1, Orexin/Hypocretin receptor type 1. Description: Fluorescence-based cell-based high throughput dose response assay for antagonists of the orexin 1 receptor (OX1R; HCRTR1). [Related pubchem assays (depositor defined):AID434989, AID435008, AID463079, AID485270, AID492963, AID492964, AID492965, AID493232, AID504717, AID504718]. Format: functional.
Experiment [9] addresses T2, Orexin receptor type 2 (Homo sapiens, UniProt O43614). The experiment can be described thus: Counterscreen assay for antagonists of the orexin 1 receptor (OX1R; HCRTR1): Fluorescence-based cell-based dose response assay for antagonists of the orexin 2 receptor (OX2R; HCRTR2), run by assay provider. The experiment is classed as functional.
Experiment [10] concerns the target T2, Orexin receptor type 2. The experiment can be described thus: Counterscreen assay for antagonists of the orexin 1 receptor (OX1R; HCRTR1): Homogeneous Time Resolved Fluorescence (HTRF)-based cell-based dose response assay for antagonists of the orexin 2 receptor (OX2R; HCRTR2), run by assay provider. Format: functional.
Experiment [11] concerns the target Neuropeptides B/W receptor type 1 (Homo sapiens, UniProt P48145). Description: GPR7 antagonist potency, late-stage follow-up, cell-based, fluorescence, dose response, set 5 (AID 588566). The experiment is classed as functional.
For experiment [12], the target named is Melanin-concentrating hormone receptor 1 (Homo sapiens, UniProt Q99705). The experiment can be described thus: Late-stage fluorescence-based counterscreen for antagonists of the G-protein coupled receptor 7 (GPR7): cell-based dose response assay to identify antagonists of the melanin-concentrating hormone receptor 1 (MCHR1) Set 5. The experiment is classed as functional.

For experiment [13], the target named is Rho-associated protein kinase 2 (Homo sapiens, UniProt O75116). Format: functional.
The target of experiment [14] is Mitogen-activated protein kinase 13 (Homo sapiens, UniProt O15264). The experiment is classed as functional.
Experiment [15] can be described thus: inhibitors of firefly luciferase expression or activity, dose response, H4 neuroglioma cells, luminescence (AID 1990). The experiment is classed as functional, cell-based.
The test system of experiment [16] is BJ. Description: cytotoxicity toward BJ-TERT fibroblasts, dose response, cell-based, RAS-independent, luminescence (AID 1933). The following applies: Homo sapiens. Format: functional.
Experiment [17] can be described thus: Luminescence Cell-Based Dose Response HTS to Identify Inhibitors of 5'UTR Stem-Loop Driven Prion Protein mRNA Translation in H4 Neuroglioblastoma Cells. [Related pubchem assays: 1827 (Project Summary), 1813 (Primary HTS)]. The experiment is classed as functional.
A short description of experiment [18]: inhibitors of SNCA 5'UTR-driven reporter translation, confirmation, H4 neuroglioma cells, luminescence (AID 1988). Format: functional, cell-based.
Experiment [19] deals with BJ. The experiment can be described thus: cells. Format: functional, cell-based. The following applies: Homo sapiens.
Experiment [20] is described as follows: Luminescence-based dose response cell-based high throughput screening assay for cytotoxic compounds using the IEC-6 intestinal epithelial cell line. [Related pubchem assays: 1858 (Summary AID.), 1825 (Counterscreen.), 1907 (Confirmation screen.)]. The experiment is classed as functional.
Experiment [21] relates to BJ. The experiment can be described thus: cytotoxicity toward BJ-TERT-LT-ST fibroblasts, dose response, cell-based, RAS-independent, luminescence (AID 1935).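 Also: BJ fibroblasts immortalized with TERT plus LT and ST oncogenes.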 Format: functional. The following applies: Homo sapiens.
Experiment [22] can be described thus: cytotoxicity toward DRD oncogenic fibroblasts, dose response, cell-based, non-viral oncogenic, luminescence (AID 1934). The experiment is classed as functional. The settings on record: Homo sapiens.
Experiment [23] relates to BJ. Description: cytotoxicity toward Ras-transformed BJeLR fibroblasts, dose response, cell-based, alamar blue fluorescence, cherrypicked samples (AID 2631).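 Also: confirmatory dose-response assay in RAS-dependent BJ fibroblasts engineered with TERT, LT and ST, with cytotoxicity read by fluorescence.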 Format: functional. The settings on record: Homo sapiens.
In a further experiment the test system is INS1. The experiment can be described thus: beta cell apoptosis inhibitors, cytokine rescue, dose response, luminescence, retest (AID 449756).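 Also: cell death triggered by IL-1 beta plus TNF-alpha plus IFN-gamma mixture; protective hits raise ATP signal compared with cytokine alone wells.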 Format: functional, cell-based. The following applies: Rattus norvegicus.
Experiment [24] is described as follows: Shn3 3'UTR reporter inhibitors, dose response, cell-based, Clone20 osteoblasts, firefly luciferase, cherry-picked (AID 624132).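 Also: firefly luciferase luminescence from reporter carrying the Shn3 3'UTR in osteoblasts.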 Format: functional.
Experiment [25] in a line: HepG2 cell cytotoxicity, dose response, cytotoxicity control for Shn3 inhibitor project, CellTiter-Glo, cherry-picked (AID 624134). The experiment is classed as functional, cell-based.
A short description of experiment [26]: control 3'UTR Renilla luciferase suppression, dose response, counter-screen for Shn3 inhibitor project, cell-based, Clone20-Shn3RL, cherry-picked (AID 624133). The experiment is classed as functional.
The target of experiment [27] is T3, High affinity choline transporter 1 (Homo sapiens, UniProt Q9GZV3).
T3 sequence (Q9GZV3 whole entry): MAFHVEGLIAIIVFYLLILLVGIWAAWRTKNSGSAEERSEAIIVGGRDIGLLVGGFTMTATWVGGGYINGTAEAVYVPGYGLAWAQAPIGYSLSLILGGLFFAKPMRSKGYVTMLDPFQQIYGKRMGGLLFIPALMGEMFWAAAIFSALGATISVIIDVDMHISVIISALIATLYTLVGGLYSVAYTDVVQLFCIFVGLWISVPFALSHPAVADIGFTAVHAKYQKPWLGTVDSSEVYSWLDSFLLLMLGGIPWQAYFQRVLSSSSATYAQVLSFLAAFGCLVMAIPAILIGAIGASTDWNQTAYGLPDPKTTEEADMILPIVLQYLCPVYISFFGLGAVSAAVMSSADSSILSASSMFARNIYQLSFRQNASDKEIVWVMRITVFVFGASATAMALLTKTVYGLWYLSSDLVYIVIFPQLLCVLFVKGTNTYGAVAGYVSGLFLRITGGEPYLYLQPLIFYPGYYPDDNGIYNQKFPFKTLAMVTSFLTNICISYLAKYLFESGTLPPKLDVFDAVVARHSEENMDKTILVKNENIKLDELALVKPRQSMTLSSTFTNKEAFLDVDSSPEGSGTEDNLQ
Description: CHT activators, dose response, cell-based, 10-point CRC, membrane potential dye (AID 602376). Format: functional.

A short description of experiment [28]: miR-122 activators in hepatoma reporter cells, dose response, cell-based, Huh7 psiCHECK-miR122, Renilla luciferase, cherry-picked (AID 651956).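 Also: huh7 hepatoma cells stably carrying a psiCHECK-2 miR-122 sensor plasmid; renilla luciferase signal reporting endogenous miR-122 activity after 48 h compound exposure.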 Format: functional.
Experiment [29] is described as follows: inhibitors of PGC1a acetylation in cells, dose response, cell-based, cherry-picked samples (AID 720514).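 Also: potency may reflect raised or lowered acetylation signal.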 The experiment is classed as functional.
Experiment [30] can be described thus: HEK293T cytotoxicity, dose response, cytotoxicity control for miR-122 modulator project, cell-based, inhibitor set, cherry-pick, set 2 (AID 720697). The experiment is classed as functional.
Experiment [31] can be described thus: HEK293T cytotoxicity, dose response, cytotoxicity control for miR-122 modulator project, cell-based, activator set, cherry-pick (AID 720690).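 Also: HEK293T human cells scored for general mammalian cytotoxicity.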 Format: functional.

Experimental findings from ChEMBL document CHEMBL1201862, “PubChem BioAssay data set” (2004) are described below.

The source made the active and inactive calls. Bounds are passed on as bounds.

T2 sequence (O43614 whole entry): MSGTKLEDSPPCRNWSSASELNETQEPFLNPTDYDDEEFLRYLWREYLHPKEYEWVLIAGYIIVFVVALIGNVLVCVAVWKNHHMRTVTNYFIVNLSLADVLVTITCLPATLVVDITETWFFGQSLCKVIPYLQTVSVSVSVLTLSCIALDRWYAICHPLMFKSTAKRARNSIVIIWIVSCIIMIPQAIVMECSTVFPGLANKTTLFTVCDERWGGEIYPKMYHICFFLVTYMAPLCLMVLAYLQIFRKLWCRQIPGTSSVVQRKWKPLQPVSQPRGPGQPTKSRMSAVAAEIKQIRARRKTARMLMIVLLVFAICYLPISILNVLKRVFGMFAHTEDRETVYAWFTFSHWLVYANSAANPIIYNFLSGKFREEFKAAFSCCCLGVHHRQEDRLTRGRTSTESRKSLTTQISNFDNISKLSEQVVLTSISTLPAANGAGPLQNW
T1 sequence (O43613 whole entry): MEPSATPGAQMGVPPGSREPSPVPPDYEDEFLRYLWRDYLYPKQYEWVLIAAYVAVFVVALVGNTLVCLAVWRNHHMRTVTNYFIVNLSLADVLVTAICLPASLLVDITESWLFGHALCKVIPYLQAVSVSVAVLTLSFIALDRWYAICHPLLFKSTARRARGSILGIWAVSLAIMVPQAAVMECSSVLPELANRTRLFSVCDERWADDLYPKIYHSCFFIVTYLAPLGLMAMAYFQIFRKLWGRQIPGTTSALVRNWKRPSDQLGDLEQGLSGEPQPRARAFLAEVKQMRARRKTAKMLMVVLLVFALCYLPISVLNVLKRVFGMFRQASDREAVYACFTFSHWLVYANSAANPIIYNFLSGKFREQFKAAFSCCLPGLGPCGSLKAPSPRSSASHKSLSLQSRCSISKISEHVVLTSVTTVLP
Mitogen-activated protein kinase 13, sequence (O15264 whole entry): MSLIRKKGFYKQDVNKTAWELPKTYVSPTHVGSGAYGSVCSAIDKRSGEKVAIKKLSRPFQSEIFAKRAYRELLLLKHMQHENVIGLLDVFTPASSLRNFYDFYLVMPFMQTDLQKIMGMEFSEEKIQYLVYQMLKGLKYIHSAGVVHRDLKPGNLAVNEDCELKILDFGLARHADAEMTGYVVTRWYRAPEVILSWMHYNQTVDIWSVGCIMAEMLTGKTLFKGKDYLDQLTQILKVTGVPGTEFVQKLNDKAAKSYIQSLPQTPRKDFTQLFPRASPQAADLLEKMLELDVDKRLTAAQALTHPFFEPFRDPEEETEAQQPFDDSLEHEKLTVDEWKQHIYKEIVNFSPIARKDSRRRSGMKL
26S proteasome non-ATPase regulatory subunit 14, sequence (O00487 whole entry): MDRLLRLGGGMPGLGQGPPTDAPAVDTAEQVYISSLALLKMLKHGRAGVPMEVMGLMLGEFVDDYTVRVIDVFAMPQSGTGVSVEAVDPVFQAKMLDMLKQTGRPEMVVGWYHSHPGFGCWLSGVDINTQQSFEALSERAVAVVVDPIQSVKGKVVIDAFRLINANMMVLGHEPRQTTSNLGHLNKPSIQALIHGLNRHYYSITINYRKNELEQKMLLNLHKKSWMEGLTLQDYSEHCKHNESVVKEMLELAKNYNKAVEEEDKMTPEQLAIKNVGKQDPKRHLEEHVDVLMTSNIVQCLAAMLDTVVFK
Rho-associated protein kinase 2, sequence (O75116 whole entry): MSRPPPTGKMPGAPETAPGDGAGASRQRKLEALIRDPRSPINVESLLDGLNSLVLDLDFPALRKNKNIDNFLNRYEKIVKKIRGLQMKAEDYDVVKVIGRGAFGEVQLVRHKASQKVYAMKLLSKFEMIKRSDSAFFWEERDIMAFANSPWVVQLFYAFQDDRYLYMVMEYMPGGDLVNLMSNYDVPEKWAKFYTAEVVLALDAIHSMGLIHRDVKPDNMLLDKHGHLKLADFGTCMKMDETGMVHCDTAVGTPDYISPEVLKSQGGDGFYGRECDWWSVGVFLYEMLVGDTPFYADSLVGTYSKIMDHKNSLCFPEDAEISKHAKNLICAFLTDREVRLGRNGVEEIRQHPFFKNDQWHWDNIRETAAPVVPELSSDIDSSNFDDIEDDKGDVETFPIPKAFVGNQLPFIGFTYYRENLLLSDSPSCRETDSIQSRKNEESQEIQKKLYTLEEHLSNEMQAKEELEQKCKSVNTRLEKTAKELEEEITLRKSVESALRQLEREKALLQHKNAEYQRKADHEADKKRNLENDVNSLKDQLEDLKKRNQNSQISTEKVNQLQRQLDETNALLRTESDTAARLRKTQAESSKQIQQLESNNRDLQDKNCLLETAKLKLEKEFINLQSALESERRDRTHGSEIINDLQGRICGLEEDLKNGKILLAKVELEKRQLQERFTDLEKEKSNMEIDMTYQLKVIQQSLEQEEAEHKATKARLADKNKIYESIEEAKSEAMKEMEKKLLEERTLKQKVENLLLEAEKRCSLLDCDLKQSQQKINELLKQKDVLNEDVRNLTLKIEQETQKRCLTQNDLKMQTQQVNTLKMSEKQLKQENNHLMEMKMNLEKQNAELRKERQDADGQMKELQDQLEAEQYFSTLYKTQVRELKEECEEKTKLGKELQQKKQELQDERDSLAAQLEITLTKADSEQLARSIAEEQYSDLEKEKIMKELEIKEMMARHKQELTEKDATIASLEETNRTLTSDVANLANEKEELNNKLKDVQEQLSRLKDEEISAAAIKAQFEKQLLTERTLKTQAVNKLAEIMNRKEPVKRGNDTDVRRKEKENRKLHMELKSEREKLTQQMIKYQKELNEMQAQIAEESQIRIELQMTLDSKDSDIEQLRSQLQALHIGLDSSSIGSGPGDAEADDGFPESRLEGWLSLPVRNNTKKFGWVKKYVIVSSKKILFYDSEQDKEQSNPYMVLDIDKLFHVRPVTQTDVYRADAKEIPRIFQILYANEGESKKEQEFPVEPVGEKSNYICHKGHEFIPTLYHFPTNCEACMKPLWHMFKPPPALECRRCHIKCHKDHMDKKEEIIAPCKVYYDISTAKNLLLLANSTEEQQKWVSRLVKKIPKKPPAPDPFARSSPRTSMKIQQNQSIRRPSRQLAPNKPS
Melanin-concentrating hormone receptor 1, sequence (Q99705 whole entry): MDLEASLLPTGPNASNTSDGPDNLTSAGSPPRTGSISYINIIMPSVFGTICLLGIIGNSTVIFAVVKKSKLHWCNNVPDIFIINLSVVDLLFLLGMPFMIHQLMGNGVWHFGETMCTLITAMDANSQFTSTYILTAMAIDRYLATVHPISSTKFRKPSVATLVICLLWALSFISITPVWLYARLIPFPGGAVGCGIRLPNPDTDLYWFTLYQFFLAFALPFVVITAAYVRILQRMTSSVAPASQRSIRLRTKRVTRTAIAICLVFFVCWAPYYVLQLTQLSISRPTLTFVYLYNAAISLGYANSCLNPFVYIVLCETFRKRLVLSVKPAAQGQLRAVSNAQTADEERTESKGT
Neuropeptides B/W receptor type 1, sequence (P48145 whole entry): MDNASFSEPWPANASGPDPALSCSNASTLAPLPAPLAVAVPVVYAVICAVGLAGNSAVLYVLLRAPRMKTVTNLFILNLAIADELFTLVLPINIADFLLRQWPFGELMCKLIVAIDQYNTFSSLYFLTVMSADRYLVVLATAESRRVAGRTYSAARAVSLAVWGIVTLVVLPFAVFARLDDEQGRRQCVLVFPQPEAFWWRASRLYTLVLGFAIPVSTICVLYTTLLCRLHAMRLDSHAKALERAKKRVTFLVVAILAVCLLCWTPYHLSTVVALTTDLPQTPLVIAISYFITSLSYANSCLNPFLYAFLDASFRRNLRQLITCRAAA
Induced myeloid leukemia cell differentiation protein Mcl-1, sequence (Q07820 whole entry): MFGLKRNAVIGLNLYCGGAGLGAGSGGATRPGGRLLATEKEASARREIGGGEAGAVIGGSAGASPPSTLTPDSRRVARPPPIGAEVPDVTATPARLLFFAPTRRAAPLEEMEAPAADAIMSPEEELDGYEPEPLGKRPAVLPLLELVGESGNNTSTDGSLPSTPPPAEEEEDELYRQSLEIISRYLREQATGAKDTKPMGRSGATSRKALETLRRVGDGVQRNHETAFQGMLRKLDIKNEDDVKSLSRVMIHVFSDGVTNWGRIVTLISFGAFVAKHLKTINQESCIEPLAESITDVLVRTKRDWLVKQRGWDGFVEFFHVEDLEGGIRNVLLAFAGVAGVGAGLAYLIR
72 kDa type IV collagenase, sequence (P08253 whole entry): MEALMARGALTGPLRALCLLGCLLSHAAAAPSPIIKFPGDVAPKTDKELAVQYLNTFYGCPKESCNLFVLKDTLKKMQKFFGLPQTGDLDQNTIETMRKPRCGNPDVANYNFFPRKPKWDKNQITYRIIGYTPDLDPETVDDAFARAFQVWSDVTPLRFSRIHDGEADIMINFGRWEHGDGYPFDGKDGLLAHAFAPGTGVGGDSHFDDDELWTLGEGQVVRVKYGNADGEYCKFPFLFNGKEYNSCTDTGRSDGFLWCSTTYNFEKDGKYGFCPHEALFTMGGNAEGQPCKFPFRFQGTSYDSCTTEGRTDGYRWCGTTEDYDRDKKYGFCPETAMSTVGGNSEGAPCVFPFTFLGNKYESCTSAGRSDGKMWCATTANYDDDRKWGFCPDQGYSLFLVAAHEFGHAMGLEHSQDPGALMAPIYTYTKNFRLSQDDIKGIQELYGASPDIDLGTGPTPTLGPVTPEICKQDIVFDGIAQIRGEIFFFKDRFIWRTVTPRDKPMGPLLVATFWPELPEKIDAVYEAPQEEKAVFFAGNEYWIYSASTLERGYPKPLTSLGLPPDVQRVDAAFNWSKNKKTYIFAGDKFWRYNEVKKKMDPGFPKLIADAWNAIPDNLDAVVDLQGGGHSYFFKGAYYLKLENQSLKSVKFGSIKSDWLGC
Genome polyprotein, sequence (Q2Q167 whole entry): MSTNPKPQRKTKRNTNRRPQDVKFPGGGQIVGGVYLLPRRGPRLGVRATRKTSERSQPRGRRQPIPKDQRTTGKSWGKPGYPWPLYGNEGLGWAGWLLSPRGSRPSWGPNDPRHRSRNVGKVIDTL

For the compound `CS(=O)(=O)c1ccc2c(c1)SC1=NC(=O)/C(=C/c3ccco3)C(=N)N12`, the half-maximal inhibitory concentration (IC50) is > 49.8 µM (not active) on Genome polyprotein; > 100 µM (active) at Large T antigen; 2.84 µM (active) in experiment [1]; > 150 µM (active) in experiment [2]; 14.4 µM (active) in [3]; 21.2 µM (active) in experiment [4]. Further, at Prothrombin, the IC50 is 21.6 µM (active).

For `C=CCn1c2ccccc2c(=O)c2cc(C#Cc3cc(OC)cc(OC)c3)ccc21`, the IC50 in the experiment with CHO-K1 was > 66.2 µM (inactive); in experiment [6], > 49.8 µM (inactive); in [7], 1.19 µM (active); in experiment [8], 7.69 µM (active); at Orexin receptor type 2 [9], 11 µM (inactive); at Orexin receptor type 2 [10], > 50 µM (inactive). Also, the AC50 in experiment [5] was 1.94 µM (active).

For `O=c1c(Oc2ccc(C(F)(F)F)cc2)c(Cl)cnn1Cc1cccc2ccccc12`, the IC50 in [11] and in [12] was > 20 µM (inactive) each time.

As for `O=C(NC(CO)Cc1ccccc1)c1ccc(-c2ccncc2)cc1` (stereo unspecified), the values for the Ki in [13] and in experiment [14] were 0.0398 µM (active) and > 7.94 µM (inactive), respectively.

Turning to `Cc1ccccc1OCC(O)CNC1CCC(NCC(O)COc2ccccc2C)CC1` (stereo unspecified), the half-maximal effective concentration (EC50) in experiment [15] was > 120 µM (not active); in the experiment with BJ [16], 2.62 µM (inconclusive); in experiment [17], 8.66 µM (active); in experiment [18], 8.49 µM (active); in the experiment on BJ [19], 5.55 µM (active); with BJ [21], 2.8 µM (inconclusive). For the same compound, the EC50 is 3.77 µM (active) in [22], 0.582 µM (inconclusive) in the experiment on BJ [23] and 19.3 µM (active) in experiment [27]. Further, in experiment [20], the half-maximal inhibitory concentration (IC50) was 2.61 µM (active). Besides, the AC50 is 5.79 µM (active) with INS1; 4.5 µM (active) in experiment [24]; 1.89 µM (active) in experiment [25]; 11.8 µM (active) in experiment [26]; 10.4 µM (active) in experiment [28]; 6.68 µM (active) in experiment [29]. The half-maximal activity concentration (AC50) was 6.41 µM (active) in experiment [30] and 9.9 µM (active) in experiment [31].

Broadly, the IC50 is the concentration that inhibits the measured activity by half. As a reminder, the AC50 is the midpoint of the concentration-response curve, whichever way the signal moves. Broadly, the Ki is a measure of affinity in units of concentration, obtained from inhibition or displacement. A word on the EC50: it is the midpoint of the concentration-response curve.
